# Experimental data reported in patent US20230295197A1, “STAT5 and STAT6 Degraders and Uses Thereof” (REGENTS OF THE UNIVERSITY OF MICHICAN, priority 2022, published 2023).
# Read-outs that look alike come from different tables or passages of the source.
# Molecular target: T1, STAT6 (Homo sapiens, UniProt P42226)
# T1 construct: endogenous in cells; host or cells: MOLM-16, KU-812, SKNO1, MB231, L1236
# T1 sequence (P42226 1-847): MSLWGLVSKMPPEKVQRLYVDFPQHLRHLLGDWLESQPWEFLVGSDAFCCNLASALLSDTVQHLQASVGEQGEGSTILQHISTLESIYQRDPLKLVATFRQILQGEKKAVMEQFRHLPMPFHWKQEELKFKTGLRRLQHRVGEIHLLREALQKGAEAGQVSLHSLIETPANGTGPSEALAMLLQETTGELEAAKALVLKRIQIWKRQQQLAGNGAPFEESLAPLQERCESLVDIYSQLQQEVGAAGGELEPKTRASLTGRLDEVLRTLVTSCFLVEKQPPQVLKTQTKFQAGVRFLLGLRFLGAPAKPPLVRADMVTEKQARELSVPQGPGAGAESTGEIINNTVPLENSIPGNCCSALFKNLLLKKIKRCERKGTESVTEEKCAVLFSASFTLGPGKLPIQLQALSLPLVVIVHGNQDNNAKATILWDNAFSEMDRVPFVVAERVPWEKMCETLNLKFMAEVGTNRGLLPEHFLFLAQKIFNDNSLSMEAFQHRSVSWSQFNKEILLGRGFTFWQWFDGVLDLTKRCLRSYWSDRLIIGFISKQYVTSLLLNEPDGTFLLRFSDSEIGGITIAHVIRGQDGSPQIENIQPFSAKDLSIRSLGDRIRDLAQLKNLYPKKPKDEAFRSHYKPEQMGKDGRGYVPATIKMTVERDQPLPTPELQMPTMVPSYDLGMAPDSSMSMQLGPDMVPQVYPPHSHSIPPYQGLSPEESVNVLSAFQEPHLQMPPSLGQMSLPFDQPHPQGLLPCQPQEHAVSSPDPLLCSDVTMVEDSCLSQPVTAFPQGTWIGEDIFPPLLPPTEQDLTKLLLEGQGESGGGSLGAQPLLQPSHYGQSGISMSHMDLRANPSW
# Experiment: Immunoblotting (Western blot) analysis of STAT6 degradation efficiency of degraders in treated cells
# Format: cell-based
# Method in brief: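 ~1e6 cells/pt; cpd at indicated conc and duration; RIPA + protease/phosphatase inhibitors; BCA; 20-40 μg/lane Tris-glycine SDS-PAGE; PVDF; primary Ab 1:1000 o/n 4 °C; IRDye secondaries 1 h rt; infrared scan and densitometry; GAPDH loading ctrl.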
# [1] = L1236 cells, read-out: DC50 S6 L1236
# [2] = MOLM-16 cells, class symbols, read-out: DC50 S6 MOLM-16
Structure (SMILES),DC50 [2] [µM],DC50 [1] [µM]
"Cc1ncsc1-c1ccc([C@H](C)NC(=O)[C@@H]2C[C@@H](O)CN2C(=O)[C@@H](NC(=O)CCCNC(=O)CO[C@H]2C[C@@H](C(=O)N3CCC[C@H](c4ccccc4)C3)N(C(=O)[C@@H](NC(=O)c3cc4cc(C(F)(F)P(=O)(O)O)ccc4s3)C(C)(C)C)C2)C(C)(C)C)cc1 [Compound 436, (difluoro(2-(((S)-1-((2S,4S)-4-(2-((4-(((S)-1-((2S,4R)-4-hydroxy-2-(((S)-1-(4-(4-methylthiazol-5-yl)phenyl)ethyl)carbamoyl)pyrrolidin-1-yl)-3,3-dimethyl-1-oxobutan-2-yl)amino)-4-oxobutyl)amino)-2-oxoethoxy)-2-((R)-3-phenylpiperidine-1-carbonyl)pyrrolidin-1-yl)-3,3-dimethyl-1-oxobutan-2-yl)carbamoyl)benzo[b]thiophen-5-yl)methyl)phosphonic acid]",> 10,> 10
"Cc1ncsc1-c1ccc([C@H](C)NC(=O)[C@@H]2C[C@@H](O)CN2C(=O)[C@@H](NC(=O)CCCCCNC(=O)CC(=O)N2CCN(C(=O)[C@@H](NC(=O)c3cc4cc(C(F)(F)P(=O)(O)O)ccc4s3)C(C)(C)C)[C@H](C(=O)N3CCC[C@H](c4ccccc4)C3)C2)C(C)(C)C)cc1 [Compound 456, (difluoro(2-(((S)-1-((S)-4-(3-((6-(((S)-1-((2,4R)-4-hydroxy-2-(((S)-1-(4-(4-methylthiazol-5-yl)phenyl)ethyl)carbamoyl)pyrrolidin-1-yl)-3,3-dimethyl-1-oxobutan-2-yl)amino)-6-oxohexyl)amino)-3-oxopropanoyl)-2-((R)-3-phenylpiperidine-1-carbonyl)piperazin-1-yl)-3,3-dimethyl-1-oxobutan-2-yl)carbamoyl)benzo[b]thiophen-5-yl)methyl)phosphonic acid]",> 10,> 10
"Cc1ncsc1-c1ccc([C@H](C)NC(=O)[C@@H]2C[C@@H](O)CN2C(=O)[C@@H](NC(=O)CCCCNC(=O)CC(=O)N2CCN(C(=O)[C@@H](NC(=O)c3cc4cc(C(F)(F)P(=O)(O)O)ccc4s3)C(C)(C)C)[C@H](C(=O)N3CCO[C@H](c4ccccc4)C3)C2)C(C)(C)C)cc1 [Compound 446, (difluoro(2-(((S)-1-((S)-4-(3-((5-(((S)-1-((2S,4R)-4-hydroxy-2-(((S)-1-(4-(4-methylthiazol-5-yl)phenyl)ethyl)carbamoyl)pyrrolidin-1-yl)-3,3-dimethyl-1-oxobutan-2-yl)amino)-5-oxopentyl)amino)-3-oxopropanoyl)-2-((R)-2-phenylmorpholine-4-carbonyl)piperazin-1-yl)-3,3-dimethyl-1-oxobutan-2-yl)carbamoyl)benzo[b]thiophen-5-yl)methyl)phosphonic acid]",> 10,> 10
"Cc1ncsc1-c1ccc([C@H](C)NC(=O)[C@@H]2C[C@@H](O)CN2C(=O)[C@@H](NC(=O)CCCCCCCCCNC(=O)COc2ccc3c(c2)CN(C(=O)[C@@H](NC(=O)c2cc4cc(C(F)(F)P(=O)(O)O)ccc4s2)C(C)(C)C)[C@H](C(=O)N2CCC[C@H](c4ccccc4)C2)C3)C(C)(C)C)cc1 [Compound 478, (difluoro(2-(((S)-1-((S)-7-(2-((10-(((S)-1-((2S,4R)-4-hydroxy-2-(((S)-1-(4-(4-methylthiazol-5-yl)phenyl)ethyl)carbamoyl)pyrrolidin-1-yl)-3,3-dimethyl-1-oxobutan-2-yl)amino)-10-oxodecyl)amino)-2-oxoethoxy)-3-((R)-3-phenylpiperidine-1-carbonyl)-3,4-dihydroisoquinolin-2(1H)-yl)-3,3-dimethyl-1-oxobutan-2-yl)carbamoyl)benzo[b]thiophen-5-yl)methyl)phosphonic acid]",> 10,–
"CC(C)(C)[C@H](NC(=O)c1cc2cc(C(F)(F)P(=O)(O)O)ccc2s1)C(=O)N1CCN(C(=O)CC(=O)NCCCCC#Cc2ccc3c(c2)C(=O)N(C2CCC(=O)NC2=O)C3=O)C[C@H]1C(=O)N1CCC[C@H](c2ccccc2)C1 (stereo partly drawn) [Compound 528, ((2-(((2S)-1-((2S)-4-(3-((6-(2-(2,6-dioxopiperidin-3-yl)-1,3-dioxoisoindolin-5-yl)hex-5-yn-1-yl)amino)-3-oxopropanoyl)-2-((R)-3-phenylpiperidine-1-carbonyl)piperazin-1-yl)-3,3-dimethyl-1-oxobutan-2-yl)carbamoyl)benzo[b]thiophen-5-yl)difluoromethyl)phosphonic acid]",> 10,–

# More lines, main results first:
DC50 [2] [µM],Structure (SMILES),DC50 [1] [µM]
> 10,"CC(C)(C)[C@H](NC(=O)c1cc2cc(C(F)(F)P(=O)(O)O)ccc2s1)C(=O)N1C[C@@H](OCC(=O)NCCC#Cc2ccc3c(c2)C(=O)N(C2CCC(=O)NC2=O)C3=O)C[C@H]1C(=O)N1CCC[C@H](c2ccccc2)C1 (stereo partly drawn) [Compound 496, ((2-(((2S)-1-((2S,4S)-4-(2-((4-(2-(2,6-dioxopiperidin-3-yl)-1,3-dioxoisoindolin-5-yl)but-3-yn-1-yl)amino)-2-oxoethoxy)-2-((R)-3-phenylpiperidine-1-carbonyl)pyrrolidin-1-yl)-3,3-dimethyl-1-oxobutan-2-yl)carbamoyl)benzo[b]thiophen-5-yl)difluoromethyl)phosphonic acid]",–
> 10,"CC(C)(C)[C@H](NC(=O)c1cc2cc(C(F)(F)P(=O)(O)O)ccc2s1)C(=O)N1C[C@@H](OCC(=O)NCC#Cc2ccc3c(c2)C(=O)N(C2CCC(=O)NC2=O)C3=O)C[C@H]1C(=O)N1CCO[C@H](c2ccccc2)C1 (stereo partly drawn) [Compound 480, ((2-(((2S)-1-((2S,4S)-4-(2-((3-(2-(2,6-dioxopiperidin-3-yl)-1,3-dioxoisoindolin-5-yl)prop-2-yn-1-yl)amino)-2-oxoethoxy)-2-((R)-2-phenylmorpholine-4-carbonyl)pyrrolidin-1-yl)-3,3-dimethyl-1-oxobutan-2-yl)carbamoyl)benzo[b]thiophen-5-yl)difluoromethyl)phosphonic acid]",–
> 10,"CC(C)(C)[C@H](NC(=O)c1cc2cc(C(F)(F)P(=O)(O)O)ccc2s1)C(=O)N1C[C@@H](OCC(=O)NCCCCCC#Cc2ccc3c(c2)C(=O)N(C2CCC(=O)NC2=O)C3=O)C[C@H]1C(=O)N1CCC[C@H](c2ccccc2)C1 (stereo partly drawn) [Compound 502, ((2-(((2S)-1-((2S,4S)-4-(2-((7-(2-(2,6-dioxopiperidin-3-yl)-1,3-dioxoisoindolin-5-yl)hept-6-yn-1-yl)amino)-2-oxoethoxy)-2-((R)-3-phenylpiperidine-1-carbonyl)pyrrolidin-1-yl)-3,3-dimethyl-1-oxobutan-2-yl)carbamoyl)benzo[b]thiophen-5-yl)difluoromethyl)phosphonic acid]",–
> 10,"CC(C)(C)[C@H](NC(=O)c1cc2cc(C(F)(F)P(=O)(O)O)ccc2s1)C(=O)N1C[C@@H](OCC(=O)NCCCCCCCCC#Cc2ccc3c(c2)C(=O)N(C2CCC(=O)NC2=O)C3=O)C[C@H]1C(=O)N1CCO[C@H](c2ccccc2)C1 (stereo partly drawn) [Compound 490, ((2-(((2S)-1-((2S,4S)-4-(2-((10-(2-(2,6-dioxopiperidin-3-yl)-1,3-dioxoisoindolin-5-yl)dec-9-yn-1-yl)amino)-2-oxoethoxy)-2-((R)-2-phenylmorpholine-4-carbonyl)pyrrolidin-1-yl)-3,3-dimethyl-1-oxobutan-2-yl)carbamoyl)benzo[b]thiophen-5-yl)difluoromethyl)phosphonic acid]",–
> 10,"CC(C)(C)[C@H](NC(=O)c1cc2cc(C(F)(F)P(=O)(O)O)ccc2s1)C(=O)N1Cc2cc(OCC(=O)NCCCC#Cc3cccc4c3C(=O)N(C3CCC(=O)NC3=O)C4=O)ccc2C[C@H]1C(=O)N1CCC[C@H](c2ccccc2)C1 (stereo partly drawn) [Compound 553, ((2-(((2S)-1-((3S)-7-(2-((5-(2-(2,6-dioxopiperidin-3-yl)-1,3-dioxoisoindolin-4-yl)pent-4-yn-1-yl)amino)-2-oxoethoxy)-3-((R)-3-phenylpiperidine-1-carbonyl)-3,4-dihydroisoquinolin-2(1H)-yl)-3,3-dimethyl-1-oxobutan-2-yl)carbamoyl)benzo[b]thiophen-5-yl)difluoromethyl)phosphonic acid]",–
1 to 10,"CC(C)(C)[C@H](NC(=O)c1cc2cc(C(F)(F)P(=O)(O)O)ccc2s1)C(=O)N1C[C@H](OCCCCCC(=O)N2Cc3cc4c(cc3C2)C(=O)N(C2CCC(=O)NC2=O)C4)C[C@H]1C(=O)N1CCO[C@H](c2ccccc2)C1 (stereo partly drawn) [Compound 592, ((2-(((2S)-1-((2S,4R)-4-((6-(6-(2,6-dioxopiperidin-3-yl)-5-oxo-3,5,6,7-tetrahydropyrrolo[3,4-f]isoindol-2(1H)-yl)-6-oxohexyl)oxy)-2-((R)-2-phenylmorpholine-4-carbonyl)pyrrolidin-1-yl)-3,3-dimethyl-1-oxobutan-2-yl)carbamoyl)benzo[b]thiophen-5-yl)difluoromethyl)phosphonic acid]",–
